Measured values as given in patent US12077503B2, “Substituted cyclic amides and their use as herbicides” (FMC CORPORATION, priority 2015, dated 2024).

What was measured:
Assay type in all cases: in vivo
Kochia (Kochia scoparia) [1] = experiment: Test A preemergence; conditions: Bassia scoparia, pre-emergence, 240 h, preemergence, 0 to 100 scale where 0 is no effect and 100 is complete control, read-out: Kochia plant response rating; for pest or weed control at 125 g/ha: 125 g ai/ha, visual injury rating, approximately 10 d; for pest or weed control at 500 g/ha: 500 g ai/ha
In short: (§1)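 Ratings of 0 (no effect) to 100 (complete control) come from visual comparison with untreated controls roughly 10 d after treatment. Test chemicals, formulated in a non-phytotoxic solvent mixture with surfactant, were applied either as a preemergence directed soil spray on seeded soil or postemergence to one- to two-leaf plants 2 to 10 cm tall.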

[2] = system: barnyardgrass (Echinochloa crus-galli); experiment: Test A preemergence; conditions: Echinochloa crus-galli, pre-emergence, 240 h, preemergence, 0 to 100 scale where 0 is no effect and 100 is complete control, read-out: Barnyardgrass plant response rating; for pest or weed control at 125 g/ha: 125 g ai/ha, visual injury rating, approximately 10 d; for pest or weed control at 500 g/ha: 500 g ai/ha
In short: as §1

[3] = system: giant foxtail (Setaria faberii); experiment: Test A preemergence; conditions: Setaria faberi, pre-emergence, 240 h, preemergence, 0 to 100 scale where 0 is no effect and 100 is complete control, read-out: Foxtail, Giant plant response rating; for pest or weed control at 125 g/ha: 125 g ai/ha, visual injury rating, approximately 10 d; for pest or weed control at 500 g/ha: 500 g ai/ha
In short: as §1

[4] = system: pigweed (Amaranthus retroflexus); experiment: Test A preemergence; conditions: Amaranthus retroflexus, pre-emergence, 240 h, preemergence, 0 to 100 scale where 0 is no effect and 100 is complete control, read-out: Pigweed plant response rating; for pest or weed control at 125 g/ha: 125 g ai/ha, visual injury rating, approximately 10 d; for pest or weed control at 500 g/ha: 500 g ai/ha
[5] = system: ragweed (common ragweed, Ambrosia elatior); experiment: Test A preemergence; conditions: Ambrosia artemisiifolia, pre-emergence, 240 h, preemergence, 0 to 100 scale where 0 is no effect and 100 is complete control, read-out: Ragweed plant response rating; for pest or weed control at 125 g/ha: 125 g ai/ha, visual injury rating, approximately 10 d; for pest or weed control at 500 g/ha: 500 g ai/ha
In short: as §1

[6] = system: ryegrass, Italian (Italian ryegrass, Lolium multiflorum); experiment: Test A preemergence; conditions: Lolium multiflorum, pre-emergence, 240 h, preemergence, 0 to 100 scale where 0 is no effect and 100 is complete control, read-out: Ryegrass, Italian plant response rating; for pest or weed control at 125 g/ha: 125 g ai/ha, visual injury rating, approximately 10 d; for pest or weed control at 500 g/ha: 500 g ai/ha
In short: as §1

[7] = system: Galium (catchweed bedstraw, Galium aparine); experiment: Test A postemergence; conditions: Galium, post-emergence, 240 h, postemergence; for pest or weed control at 125 g/ha: 125 g ai/ha, visual injury vs untreated controls after approx. 10 d, 0 = no effect, 100 = complete control, read-out: Galium plant response rating (0 to 100 scale); for pest or weed control at 500 g/ha: 500 g ai/ha, 0 to 100 scale, 0 is no effect, 100 is complete control, read-out: Galium plant response rating
In short: as §1

Kochia (Kochia scoparia) [8] = experiment: Test A postemergence; conditions: Bassia scoparia, post-emergence, 240 h, postemergence; for pest or weed control at 125 g/ha: 125 g ai/ha, visual injury vs untreated controls after approx. 10 d, 0 = no effect, 100 = complete control, read-out: Kochia plant response rating (0 to 100 scale); for pest or weed control at 500 g/ha: 500 g ai/ha, 0 to 100 scale, 0 is no effect, 100 is complete control, read-out: Kochia plant response rating
In short: as §1

[9] = system: blackgrass (Alopecurus myosuroides); experiment: Test A postemergence; conditions: Alopecurus myosuroides, post-emergence, 240 h, postemergence; for pest or weed control at 125 g/ha: 125 g ai/ha, visual injury vs untreated controls after approx. 10 d, 0 = no effect, 100 = complete control, read-out: Blackgrass plant response rating (0 to 100 scale); for pest or weed control at 500 g/ha: 500 g ai/ha, 0 to 100 scale, 0 is no effect, 100 is complete control, read-out: Blackgrass plant response rating
In short: as §1

corn (Zea mays) = experiment: Test A postemergence; conditions: Zea mays, post-emergence, 240 h, postemergence; for plant injury at 125 g/ha: 125 g ai/ha, visual injury vs untreated controls after approx. 10 d, 0 = no effect, 100 = complete control, read-out: Corn plant response rating (0 to 100 scale); for plant injury at 500 g/ha: 500 g ai/ha, 0 to 100 scale, 0 is no effect, 100 is complete control, read-out: Corn plant response rating
In short: as §1

[10] = system: giant foxtail (Setaria faberii); experiment: Test A postemergence; conditions: Setaria faberi, post-emergence, 240 h, postemergence; for pest or weed control at 125 g/ha: 125 g ai/ha, visual injury vs untreated controls after approx. 10 d, 0 = no effect, 100 = complete control, read-out: Foxtail, Giant plant response rating (0 to 100 scale); for pest or weed control at 500 g/ha: 500 g ai/ha, 0 to 100 scale, 0 is no effect, 100 is complete control, read-out: Foxtail, Giant plant response rating
In short: as §1

[11] = system: pigweed (Amaranthus retroflexus); experiment: Test A postemergence; conditions: Amaranthus retroflexus, post-emergence, 240 h, postemergence; for pest or weed control at 125 g/ha: 125 g ai/ha, visual injury vs untreated controls after approx. 10 d, 0 = no effect, 100 = complete control, read-out: Pigweed plant response rating (0 to 100 scale); for pest or weed control at 500 g/ha: 500 g ai/ha, 0 to 100 scale, 0 is no effect, 100 is complete control, read-out: Pigweed plant response rating
In short: as §1

[12] = system: ragweed (common ragweed, Ambrosia elatior); experiment: Test A postemergence; conditions: Ambrosia artemisiifolia, post-emergence, 240 h, postemergence; for pest or weed control at 125 g/ha: 125 g ai/ha, visual injury vs untreated controls after approx. 10 d, 0 = no effect, 100 = complete control, read-out: Ragweed plant response rating (0 to 100 scale); for pest or weed control at 500 g/ha: 500 g ai/ha, 0 to 100 scale, 0 is no effect, 100 is complete control, read-out: Ragweed plant response rating
In short: as §1

[13] = system: ryegrass, Italian (Italian ryegrass, Lolium multiflorum); experiment: Test A postemergence; conditions: Lolium multiflorum, post-emergence, 240 h, postemergence; for pest or weed control at 125 g/ha: 125 g ai/ha, visual injury vs untreated controls after approx. 10 d, 0 = no effect, 100 = complete control, read-out: Ryegrass, Italian plant response rating (0 to 100 scale); for pest or weed control at 500 g/ha: 500 g ai/ha, 0 to 100 scale, 0 is no effect, 100 is complete control, read-out: Ryegrass, Italian plant response rating
In short: as §1

[14] = system: wheat (Triticum aestivum); experiment: Test A postemergence; conditions: Triticum aestivum, post-emergence, 240 h, postemergence; for plant injury at 125 g/ha: 125 g ai/ha, visual injury vs untreated controls after approx. 10 d, 0 = no effect, 100 = complete control, read-out: Wheat plant response rating (0 to 100 scale); for plant injury at 500 g/ha: 500 g ai/ha, 0 to 100 scale, 0 is no effect, 100 is complete control, read-out: Wheat plant response rating
In short: as §1

## COc1cc([C@H]2CN(C)C(=O)[C@@H]2C(=O)Nc2ccccc2SC)cc(OC)c1OC [Compound 1218]
Kochia (Kochia scoparia) [1]
  pest or weed control at 125 g/ha: 0%
  pest or weed control at 500 g/ha: 0%
[2]
  pest or weed control at 125 g/ha: 30%
  pest or weed control at 500 g/ha: 100%
[3]
  pest or weed control at 125 g/ha: 80%
  pest or weed control at 500 g/ha: 90%
[4]
  pest or weed control at 125 g/ha: 0%
  pest or weed control at 500 g/ha: 0%
[5]
  pest or weed control at 125 g/ha: 0%
  pest or weed control at 500 g/ha: 0%
[6]
  pest or weed control at 125 g/ha: 0%
  pest or weed control at 500 g/ha: 0%
[7]
  pest or weed control at 125 g/ha: 0%
  pest or weed control at 500 g/ha: 0%
Kochia (Kochia scoparia) [8]
  pest or weed control at 125 g/ha: 0%
  pest or weed control at 500 g/ha: 20%
[9]
  pest or weed control at 125 g/ha: 0%
  pest or weed control at 500 g/ha: 0%
Corn (Zea mays)
  plant injury at 125 g/ha: 0%
  plant injury at 500 g/ha: 0%
[10]
  pest or weed control at 125 g/ha: 0%
  pest or weed control at 500 g/ha: 50%
[11]
  pest or weed control at 125 g/ha: 0%
  pest or weed control at 500 g/ha: 0%
[12]
  pest or weed control at 125 g/ha: 0%
  pest or weed control at 500 g/ha: 0%
[13]
  pest or weed control at 125 g/ha: 0%
  pest or weed control at 500 g/ha: 0%
[14]
  plant injury at 125 g/ha: 0%
  plant injury at 500 g/ha: 0%

## COc1cc(C(F)(F)F)ccc1[C@H]1CNC(=O)[C@@H]1C(=O)Nc1cccc(F)c1F [Compound 1203]
Kochia (Kochia scoparia) [1]
  pest or weed control at 125 g/ha: 20%
  pest or weed control at 500 g/ha: 50%
[2]
  pest or weed control at 125 g/ha: 80%
  pest or weed control at 500 g/ha: 90%
[3]
  pest or weed control at 125 g/ha: 80%
  pest or weed control at 500 g/ha: 90%
[4]
  pest or weed control at 125 g/ha: 0%
  pest or weed control at 500 g/ha: 20%
[5]
  pest or weed control at 125 g/ha: 30%
  pest or weed control at 500 g/ha: 80%
[6]
  pest or weed control at 125 g/ha: 0%
  pest or weed control at 500 g/ha: 20%
[7]
  pest or weed control at 125 g/ha: 50%
  pest or weed control at 500 g/ha: 60%
Kochia (Kochia scoparia) [8]
  pest or weed control at 125 g/ha: 40%
  pest or weed control at 500 g/ha: 60%
[9]
  pest or weed control at 125 g/ha: 20%
  pest or weed control at 500 g/ha: 60%
Corn (Zea mays)
  plant injury at 125 g/ha: 40%
  plant injury at 500 g/ha: 70%
[10]
  pest or weed control at 125 g/ha: 90%
  pest or weed control at 500 g/ha: 90%
[11]
  pest or weed control at 125 g/ha: 0%
  pest or weed control at 500 g/ha: 20%
[12]
  pest or weed control at 125 g/ha: 20%
  pest or weed control at 500 g/ha: 30%
[13]
  pest or weed control at 125 g/ha: 0%
  pest or weed control at 500 g/ha: 0%
[14]
  plant injury at 125 g/ha: 0%
  plant injury at 500 g/ha: 50%

## COc1ccc([C@H]2CN(C)C(=O)[C@@H]2C(=O)Nc2ccccc2SC)c(OC)c1 [Compound 1216]
Kochia (Kochia scoparia) [1]
  pest or weed control at 125 g/ha: 0%
[2]
  pest or weed control at 125 g/ha: 0%
  pest or weed control at 500 g/ha: 90%
[3]
  pest or weed control at 125 g/ha: 30%
  pest or weed control at 500 g/ha: 80%
[4]
  pest or weed control at 125 g/ha: 0%
  pest or weed control at 500 g/ha: 0%
[5]
  pest or weed control at 125 g/ha: 0%
  pest or weed control at 500 g/ha: 20%
[6]
  pest or weed control at 125 g/ha: 0%
  pest or weed control at 500 g/ha: 0%
[7]
  pest or weed control at 125 g/ha: 0%
  pest or weed control at 500 g/ha: 0%
Kochia (Kochia scoparia) [8]
  pest or weed control at 125 g/ha: 0%
  pest or weed control at 500 g/ha: 40%
[9]
  pest or weed control at 125 g/ha: 0%
  pest or weed control at 500 g/ha: 0%
Corn (Zea mays)
  plant injury at 125 g/ha: 0%
  plant injury at 500 g/ha: 0%
[10]
  pest or weed control at 125 g/ha: 20%
  pest or weed control at 500 g/ha: 80%
[11]
  pest or weed control at 125 g/ha: 0%
  pest or weed control at 500 g/ha: 0%
[12]
  pest or weed control at 125 g/ha: 0%
  pest or weed control at 500 g/ha: 0%
[13]
  pest or weed control at 125 g/ha: 0%
  pest or weed control at 500 g/ha: 0%
[14]
  plant injury at 125 g/ha: 0%
  plant injury at 500 g/ha: 0%
